Data published in patent US10358446B2, “Bruton's tyrosine kinase inhibitors” (Zibo Biopolar Changsheng Pharmaceutical Co. Ltd., priority 2015, dated 2019).
Where two headings read alike, the source gives them in different places.

Key:
LYN = LYN (Homo sapiens (Human), UniProt P07948); assay: LYN kinase assay (HTRF); type: biochemical; settings: [ATP]=20 μM, LYN=0.12 nM
Ramos cells = assay: Calcium flux assay, IgM-induced calcium influx in Ramos cells; type: cell-based; settings: Ramos cells stimulated with goat anti-human IgM antibody 10 μg/ml; read-out: Ramos Ca Flux
Procedure: Calcium flux fluorescence-based assays were performed in aFDSS7000EX (Hamamatsu Photonics) fluorometric imaging plate reader according to manufacturer instructions. Compounds to be assayed were dissolved in DMSO, diluted to appropriate concentrations in Ca^2+ buffer ranging from 0 to 10 μM (at a dilution factor of 0.1), added 5 μl (6×) to each well (the final DMSO concentration was 0.1% in each well). Then 12.5 μL 2× dye loading solution (Fluo-4 NW Calcium Assay Kits, Invitrogen) was added per well of a 384-well plate. Afterwards, actively growing Ramos cells (ATCC) in RPM1640 medium supplemented with 10% FBS (Invitrogen) were washed and re-plated in assay buffer (from Fluo-4 NW Calcium Assay Kits, Invitrogen) to approximately 6.4×10^6/ml (80000 cells/12.5 μL in 384-well plates). […] The plates were now ready to be used in an experiment Immediately after the transfer and a 10-s recording of baseline fluorescence, the compound treated cells were stimulated with a goat anti-human IgM antibody (10 μg/ml; Jackson Immuno Research) and read in a FDSS for 240 seconds. Difference between the signal and that at baseline, designated adjusted relative fluorescence unit, was calculated by using a custom Excel (Microsoft, Redmond, Wash.) template to determine IgM-induced calcium influx and its inhibition by compounds. […]

BTK [1] = molecular target: T1, BTK (Homo sapiens (Human), UniProt Q06187); assay: Btk kinase assay (HTRF); type: biochemical; settings: [ATP]=80 μM, BTK=3.4 nM
Outline: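 HTRF kinase read-out (665/615 nm ratio, excitation 330 nm) after EDTA quench and 1 h detection incubation. Reaction: 3.4 nM BTK, ATP 80 μM, peptide substrate 1 μM, compound, HEPES pH 7.0 buffer, 1 h; IC50 derived using uninhibited and enzyme-free controls.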
Target sequence in this assay (Q06187 whole entry, species assumed): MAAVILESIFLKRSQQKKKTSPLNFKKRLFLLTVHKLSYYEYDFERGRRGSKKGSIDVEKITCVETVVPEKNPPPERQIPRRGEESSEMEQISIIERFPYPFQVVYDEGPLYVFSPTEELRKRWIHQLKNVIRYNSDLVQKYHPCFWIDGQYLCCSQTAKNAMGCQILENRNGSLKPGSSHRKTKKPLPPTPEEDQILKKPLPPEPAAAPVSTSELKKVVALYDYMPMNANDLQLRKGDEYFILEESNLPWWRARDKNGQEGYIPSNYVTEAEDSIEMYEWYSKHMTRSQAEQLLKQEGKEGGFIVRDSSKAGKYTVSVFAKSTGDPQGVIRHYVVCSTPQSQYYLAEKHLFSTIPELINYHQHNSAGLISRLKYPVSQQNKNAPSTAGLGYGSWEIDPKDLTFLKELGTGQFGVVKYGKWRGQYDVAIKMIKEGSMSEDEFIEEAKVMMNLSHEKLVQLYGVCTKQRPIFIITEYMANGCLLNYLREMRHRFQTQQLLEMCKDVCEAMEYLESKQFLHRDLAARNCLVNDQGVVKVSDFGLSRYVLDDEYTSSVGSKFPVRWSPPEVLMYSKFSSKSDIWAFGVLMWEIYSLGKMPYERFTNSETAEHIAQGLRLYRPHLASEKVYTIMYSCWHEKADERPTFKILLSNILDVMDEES

LCK = LCK (Homo sapiens (Human), UniProt P06239); assay: LCK kinase assay (HTRF); type: biochemical; settings: [ATP]=20 μM, LCK=0.2 nM
Sequence of LCK (P06239 whole entry, species assumed): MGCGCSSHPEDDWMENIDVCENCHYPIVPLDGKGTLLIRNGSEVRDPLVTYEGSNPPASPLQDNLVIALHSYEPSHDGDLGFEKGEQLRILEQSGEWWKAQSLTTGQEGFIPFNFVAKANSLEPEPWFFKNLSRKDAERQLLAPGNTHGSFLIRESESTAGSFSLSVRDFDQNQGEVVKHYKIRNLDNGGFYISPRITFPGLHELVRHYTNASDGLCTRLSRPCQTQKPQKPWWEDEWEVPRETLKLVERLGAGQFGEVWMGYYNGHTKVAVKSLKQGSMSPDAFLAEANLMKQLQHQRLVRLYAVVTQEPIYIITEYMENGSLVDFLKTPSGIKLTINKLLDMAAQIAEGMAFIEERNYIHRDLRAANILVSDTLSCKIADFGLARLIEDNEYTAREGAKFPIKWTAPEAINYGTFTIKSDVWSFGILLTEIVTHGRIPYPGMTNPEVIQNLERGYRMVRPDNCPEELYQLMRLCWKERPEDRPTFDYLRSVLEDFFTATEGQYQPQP

BTK [2] = molecular target: T1, BTK; assay: Btk occupancy in cellular assays (PCI-33380 labeling, Jeko-1 cells); type: cell-based; settings: 100 nM compound, 1.5 h pre-incubation, PCI-33380 probe
Procedure: For PCI-33380 labeling of human B cells, 10^6 Jeko-1 cells were pre-incubated with compound for 1.5 h before labeling. Then cells were treated with PCI-33380 at 5 μM for 1 h. Washed, lysed in Ripa buffer containing sample reducing agent, and analyzed by SDS/PAGE and fluorescent gel scanning using a Typhoon scanner 9500 (GE Healthcare) (Ex, 532 nm; Em, 555 nm). The gel was then blotted and total Btk levels detected by standard Western blot with Btk antibody (CST).
Target sequence in this assay (Q06187 whole entry): as the sequence (Q06187 whole entry, species assumed) above

Btk [3] = molecular target: Btk (Mus musculus (Mouse), UniProt P35991); assay: Btk occupancy in vivo (PBMCs or splenocytes, PCI-33380 labeling); set-up: species or system Babc/L mice; settings: 25 mg/kg single oral dose, Balb/c mice, after 4 hours
Sequence of Btk (P35991 whole entry): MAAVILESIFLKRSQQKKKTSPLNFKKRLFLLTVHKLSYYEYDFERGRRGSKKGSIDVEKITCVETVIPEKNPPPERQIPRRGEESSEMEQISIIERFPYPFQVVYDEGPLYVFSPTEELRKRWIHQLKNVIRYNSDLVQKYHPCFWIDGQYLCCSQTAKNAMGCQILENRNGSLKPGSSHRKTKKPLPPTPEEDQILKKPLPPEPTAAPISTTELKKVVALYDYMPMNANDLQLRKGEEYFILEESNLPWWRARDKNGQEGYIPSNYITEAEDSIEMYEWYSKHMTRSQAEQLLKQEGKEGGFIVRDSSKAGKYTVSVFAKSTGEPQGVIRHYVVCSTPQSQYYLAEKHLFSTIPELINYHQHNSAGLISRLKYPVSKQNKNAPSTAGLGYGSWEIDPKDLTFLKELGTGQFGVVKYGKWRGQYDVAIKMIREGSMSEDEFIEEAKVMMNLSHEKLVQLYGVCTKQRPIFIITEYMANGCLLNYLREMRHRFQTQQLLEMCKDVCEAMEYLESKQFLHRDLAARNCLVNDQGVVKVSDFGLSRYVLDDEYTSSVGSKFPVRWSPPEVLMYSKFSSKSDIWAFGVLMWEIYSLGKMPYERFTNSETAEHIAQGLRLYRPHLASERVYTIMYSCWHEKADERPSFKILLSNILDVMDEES
Procedure: For analysis of Btk occupancy in Babc/L mice following oral dosing of compounds after 4 hours. Isolating peripheral blood mononuclear cells (PBMCs) with mouse peripheral blood separation kit (Hao Yang Biological Manufacture CO., LTD, Tianjin) were collected from Babc/L mice (1 ml blood from two mice). Spleens were processed to splenocytes followed by 5 min incubation in red blood cell lysing buffer (from mouse peripheral blood separation kit). PBMCs or splenocytes were then PCI-33380-labeled and lysates analyzed by fluorescent gel scanning as described in cellular assays.

Sequence of LYN (P07948 whole entry, species assumed): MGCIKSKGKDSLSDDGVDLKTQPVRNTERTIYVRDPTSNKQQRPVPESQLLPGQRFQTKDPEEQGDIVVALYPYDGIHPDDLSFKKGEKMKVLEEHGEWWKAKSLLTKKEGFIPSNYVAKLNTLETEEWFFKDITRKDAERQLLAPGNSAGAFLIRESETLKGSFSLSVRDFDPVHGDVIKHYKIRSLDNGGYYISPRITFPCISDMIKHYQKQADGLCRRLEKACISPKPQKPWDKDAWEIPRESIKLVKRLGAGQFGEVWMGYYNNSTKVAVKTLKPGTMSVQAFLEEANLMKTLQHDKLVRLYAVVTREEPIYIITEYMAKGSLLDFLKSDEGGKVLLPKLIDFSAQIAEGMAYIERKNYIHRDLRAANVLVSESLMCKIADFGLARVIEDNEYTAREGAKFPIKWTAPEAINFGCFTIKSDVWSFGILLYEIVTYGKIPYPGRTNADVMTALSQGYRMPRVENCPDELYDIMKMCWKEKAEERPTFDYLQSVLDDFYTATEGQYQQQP

Row | IC50 (LYN) [nM] | IC50 (Ramos cells) [nM] | IC50 (BTK [1]; Table 2, read-out: BTK IC50) [nM] | IC50 (BTK [1]; read-out: BTK Inhibition) [nM] | IC50 (LCK) [nM] | occupancy of the active site of Btk (BTK [2]) | Btk occupancy in vivo (Btk [3]) | SMILES
1 | 1000 to 10000 | 10 to 100 | ≤ 10 | ≤ 10 | 1000 to 10000 | fully occupy | – | C=CC(=O)N1CC[C@@H](n2c(=O)n(-c3ccc(Oc4cccc(C)c4)cc3)c3cnccc32)C1 [Example 4, (R)-1-(1-acryloylpyrrolidin-3-yl)-3-(4-(m-tolyloxy)phenyl)-1H-imidazo[4,5-c]pyridin-2(3H)-one]
2 | ≥ 10000 | 10 to 100 | ≤ 10 | ≤ 10 | ≥ 10000 | fully occupy | full occupancy | C=CC(=O)N1CC[C@@H](n2c(=O)n(-c3ccc(Oc4ccccc4)c(Cl)c3)c3cnccc32)C1 [Example 5, (R)-1-(1-acryloylpyrrolidin-3-yl)-3-(3-chloro-4-phenoxyphenyl)-1H-imidazo[4,5-c]pyridin-2(3H)-one]
